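96-well plates; 48 h exposure; 5 concentrations. Endpoints by linear interpolation between flanking doses. Not reached: highest tested concentration assigned. TGI: total growth inhibition.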
Assays:
Experiment in all cases: NCI tumour cell line growth inhibition, 48 h
A498 renal = tested on: A498 renal
CCRF-CEM leukemia = tested on: CCRF-CEM leukemia
SF-268 CNS = tested on: SF-268 CNS
786-0 renal = tested on: 786-0 renal
MDA-MB-231 breast = tested on: MDA-MB-231 breast
IGROV1 ovarian = tested on: IGROV1 ovarian
HT29 colon = tested on: HT29 colon
M14 melanoma = tested on: M14 melanoma
SR leukemia = tested on: SR leukemia
A549 NSCLC = tested on: A549 NSCLC
NCI-H226 lung = tested on: NCI-H226 lung
K-562 leukemia = tested on: K-562 leukemia
HCT-15 colon = tested on: HCT-15 colon
MOLT-4 leukemia = tested on: MOLT-4 leukemia
LOX IMVI melanoma = tested on: LOX IMVI melanoma
HL-60(TB) leukemia = tested on: HL-60(TB) leukemia
SNB-75 CNS = tested on: SNB-75 CNS
DU-145 prostate = tested on: DU-145 prostate
U251 CNS = tested on: U251 CNS
OVCAR-8 ovarian = tested on: OVCAR-8 ovarian
HCC-2998 colon = tested on: HCC-2998 colon
HS 578T breast = tested on: HS 578T breast
NCI-H460 lung = tested on: NCI-H460 lung
MALME-3M melanoma = tested on: MALME-3M melanoma
HCT-116 colon = tested on: HCT-116 colon
NCI-H23 lung = tested on: NCI-H23 lung
SNB-19 CNS = tested on: SNB-19 CNS
PC-3 prostate = tested on: PC-3 prostate
KM12 colon = tested on: KM12 colon
SK-MEL-2 melanoma = tested on: SK-MEL-2 melanoma
T-47D breast = tested on: T-47D breast
RXF 393 renal = tested on: RXF 393 renal
NCI-H522 lung = tested on: NCI-H522 lung
OVCAR-5 ovarian = tested on: OVCAR-5 ovarian
MDA-N = tested on: MDA-N
BT-549 breast = tested on: BT-549 breast
SK-MEL-28 melanoma = tested on: SK-MEL-28 melanoma
OVCAR-4 ovarian = tested on: OVCAR-4 ovarian
RPMI-8226 leukemia = tested on: RPMI-8226 leukemia
SK-MEL-5 melanoma = tested on: SK-MEL-5 melanoma
COLO 205 colon = tested on: COLO 205 colon
SF-539 CNS = tested on: SF-539 CNS
HOP-92 NSCLC = tested on: HOP-92 NSCLC
EKVX NSCLC = tested on: EKVX NSCLC
SN12C renal = tested on: SN12C renal
SW-620 colon = tested on: SW-620 colon
CAKI-1 renal = tested on: CAKI-1 renal
MCF7 breast = tested on: MCF7 breast
ACHN renal = tested on: ACHN renal
UACC-257 melanoma = tested on: UACC-257 melanoma
UACC-62 melanoma = tested on: UACC-62 melanoma
NCI/ADR-RES ovarian = tested on: NCI/ADR-RES ovarian
TK-10 renal = tested on: TK-10 renal
MDA-MB-435 = tested on: MDA-MB-435
UO-31 renal = tested on: UO-31 renal

## CCN(CC)c1ccc(/C=C/C2=NN(c3cccc(S(=O)(=O)O)c3)C3(C2)SCC(=O)N3c2nc3ccccc3s2)cc1 (stereo not given)
A498 renal
  TGI: 99 µM
CCRF-CEM leukemia
  TGI: 55 µM
SF-268 CNS
  TGI: > 100 µM
786-0 renal
  TGI: > 100 µM
MDA-MB-231 breast
  TGI: > 100 µM
IGROV1 ovarian
  TGI: > 100 µM
HT29 colon
  TGI: > 100 µM
M14 melanoma
  TGI: > 100 µM
SR leukemia
  TGI: 86.2 µM
A549 NSCLC
  TGI: > 100 µM
NCI-H226 lung
  TGI: > 100 µM
K-562 leukemia
  TGI: > 100 µM
HCT-15 colon
  TGI: > 100 µM
MOLT-4 leukemia
  TGI: > 100 µM
LOX IMVI melanoma
  TGI: > 100 µM
HL-60(TB) leukemia
  TGI: 80.3 µM
SNB-75 CNS
  TGI: > 100 µM
DU-145 prostate
  TGI: 75.7 µM
U251 CNS
  TGI: > 100 µM
OVCAR-8 ovarian
  TGI: > 100 µM
HCC-2998 colon
  TGI: > 100 µM
HS 578T breast
  TGI: > 100 µM
NCI-H460 lung
  TGI: > 100 µM
MALME-3M melanoma
  TGI: > 100 µM
HCT-116 colon
  TGI: > 100 µM
NCI-H23 lung
  TGI: > 100 µM
SNB-19 CNS
  TGI: > 100 µM
PC-3 prostate
  TGI: > 100 µM
KM12 colon
  TGI: 60.5 µM
SK-MEL-2 melanoma
  TGI: > 100 µM
T-47D breast
  TGI: 53.9 µM
RXF 393 renal
  TGI: > 100 µM
NCI-H522 lung
  TGI: 67.2 µM
OVCAR-5 ovarian
  TGI: > 100 µM
MDA-N
  TGI: > 100 µM
BT-549 breast
  TGI: > 100 µM
SK-MEL-28 melanoma
  TGI: > 100 µM
OVCAR-4 ovarian
  TGI: > 100 µM
RPMI-8226 leukemia
  TGI: 66.8 µM
SK-MEL-5 melanoma
  TGI: > 100 µM
COLO 205 colon
  TGI: 81.1 µM
SF-539 CNS
  TGI: > 100 µM
HOP-92 NSCLC
  TGI: > 100 µM
EKVX NSCLC
  TGI: > 100 µM
SN12C renal
  TGI: > 100 µM
SW-620 colon
  TGI: > 100 µM
CAKI-1 renal
  TGI: > 100 µM
MCF7 breast
  TGI: 91.2 µM
ACHN renal
  TGI: > 100 µM
UACC-257 melanoma
  TGI: > 100 µM
UACC-62 melanoma
  TGI: > 100 µM
NCI/ADR-RES ovarian
  TGI: > 100 µM
TK-10 renal
  TGI: 94 µM
MDA-MB-435
  TGI: 47.2 µM
UO-31 renal
  TGI: > 100 µM
